According to patent publication EP4467141A1, “PYRAZOLO-QUINOLINES AS SELECTIVE INHIBITORS OF GENOTOXIC STRESS-INDUCED IKK/NF- KB PATHWAYS FOR CANCER THERAPY” (Max-Delbrück-Centrum für Molekulare Medizin in der …, priority 2023, dated 2024):

Experiments:
[1] = tested on: NF-κB subunit p65 phosphorylation (S536); assay: Western blot of p65 phosphorylation (S536) after TNFα in U2-OS cells; type: cell-based; conditions: 1-hour pre-treatment, TNFα 10 ng/ml, 20 min
Description: Fig.1: Identification of inhibitors specific for DNA damage-induced NF-κB activity. (A) Flowchart representing the high-throughput chemical library screening. A screen/counter-screen strategy was used by stimulating NF-κB in U2-OS cells with etoposide (50 µM for 90 min) and hits were counter-screened with TNFα (10 ng/ml for 20 min). Cells were pre-treated with compounds (10 µM) for 1 hour before stimulation, fixed, and percent p65 nuclear translocation measured by fluorescence microscopy. IC50 values were used for final selection. (B) Comparison of mean p65 nuclear translocation following either etoposide or TNFa stimulation after treatment with each counter-screened hit compound. Values were normalized to etoposide or TNFα positive controls. Specific inhibitors (red) of DNA damage-induced NF-κB signaling were defined by setting cut-off criteria (black line). […] (C) IC50 determination for MW01 (left) and MW05 (right) of p65 nuclear translocation, following either etoposide or TNFα treatment. […] IC50 noted with a dotted line. […] (E) Western blot analysis (top) and quantification (bottom) of NF-κB subunit p65 phosphorylation (S536) following 1-hour pre-treatment with DMSO, MW01 (10 µM), or MW05 (10 µM), in unstimulated, after 90 min irradiation (IR, 20 Gy), or after 20 min TNFα (10 ng/mL) conditions in U2- OS cells. […]
NF-κB was stimulated by DNA damage through either 20 Gy irradiation (IR) and analyzed after 90 minutes or by 10 ng/ml TNFα and analyzed after 20 minutes unless otherwise noted. […]
Cells were collected by scraping and lysed in Baeuerle lysis buffer supplemented with Protease (Thermo Fisher Scientific, 78429) and Phosphatase (Thermo Fisher Scientific, 78420) inhibitors after the appropriate treatment and time point. Proteins were quantified by Bradford assay (Bio-Rad, 5000006) and 20-50 µg of extracted proteins were loaded on 4-20% Protein Gel (Bio-Rad, 4568096) and then transferred onto a PVDF membrane (Bio-Rad, 1620177) using Tris-Glycine buffer with 20% of methanol. […]

[2] = tested on: Akt phosphorylation (S473); assay: Western blot of Akt phosphorylation (S473) in U2-OS cells; type: cell-based; conditions: 1-hour pre-treatment
Description: Fig.2: MW01 and MW05 are potent and selective kinase inhibitors. […] Heatmap indicates lower IC50. […] (C) Western blot analysis of NF-κB p65 phosphorylation (S536) and Akt phosphorylation (S473) following 1-hour pre-treatment with DMSO, MW01 (10 µM), MW05 (10µM), PI-103 (1 µM), NU7441 (1 µM), or MU1210 (1 µM) in unstimulated, after 90 min irradiation (IR, 20 Gy), or after 20 min TNFα (10 ng/ml) conditions in U2-OS cells. (D) mRNA expression analysis of CLK2 (top), 48 hours after transfection with siNC, CLK2 si1, or CLK2 si2. mRNA expression analysis of NFKBIA (bottom), 48 hours after transfection with siNC, CLK2 si1, orCLK2 si2. Values are normalized to unstimulated siNC expressing cells. Statistical comparison was made between experimental conditions and respective paired siNC expressing controls. ns: not significant; **, ***, ****: p<0.01, p<0.001, p<0.000. (E) Western blot analysis of U2-OS cells after transfection with siNC or CLK2 si2 unstimulated, after irradiation (IR), or after TNFα treatment. Vinculin used as loading control. (F) IC50 (nM) of all CLK isoforms for MW01 and MW05. (G) Quantification from (E) with CLK2 knockdown and p-p65 quantification (top left and top right, respectively) and CLK4 knockdown and p-p65 (bottom left and bottom right, respectively. ns: not significant; **, ***, ****: p<0.01, p<0.001, p<0.0001.
Cells were collected by scraping and lysed in Baeuerle lysis buffer supplemented with Protease (Thermo Fisher Scientific, 78429) and Phosphatase (Thermo Fisher Scientific, 78420) inhibitors after the appropriate treatment and time point. Proteins were quantified by Bradford assay (Bio-Rad, 5000006) and 20-50 µg of extracted proteins were loaded on 4-20% Protein Gel (Bio-Rad, 4568096) and then transferred onto a PVDF membrane (Bio-Rad, 1620177) using Tris-Glycine buffer with 20% of methanol. Blocking was performed for 1h with 5% not-fat dry milk in PBS 1X. […] The membranes were analyzed by ECL (Thermo Fisher Scientific, 34580) and detected by ChemiDoc XRS+ (Bio-Rad) using ImageLab software (Bio-Rad). […]

| Structure (SMILES) | phosphorylation of p65 at serine 536, TNFα-stimulated [1] | reduction of p-Akt [2] |
| --- | --- | --- |
| COc1ccc2c(c1OC)c(=O)n1c3ccc(O)cc3c3ccnc2c31 [MW01, 5-Hydroxy-10,11-dimethoxy-9H-benzo[c]indolo[3,2,1-ij][1,5]naphthyridin-9-one] | untouched | complete reduction |
| COc1ccc2cc3c(N)nn(C(=O)c4cccc(N(C)C)c4)c3nc2c1 [MW05, (3-Amino-7-methoxypyrazolo[3,4-b]quinolin-1-yl)-[3-(dimethylamino)phenyl]methanone] | untouched | partial reduction |
